Structures are written as SMILES.

For experiment [1], the system named is PMA-differentiated THP-1 cells. In words: hTHP-1 assay containing 10% fetal bovine serum (IL-1β production, Tables B5 and B6). It counts as cell-based, human. Put shortly: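 IL-1β release from PMA-differentiated THP-1 macrophage-like cells was triggered by 5 μM gramicidin for 2 h after 1 h compound exposure, then measured by HTRF.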
Experiment [2] concerns PMA-differentiated THP-1 cells. Kind of experiment: IL-1β production in PMA-differentiated THP-1 cells stimulated with gramicidin (hTHP-1 assay containing 2% fetal bovine serum; Procedures 1 and 2). In kind it is cell-based, human. An outline of the steps: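 Compound titrations in 0.37% final DMSO were added to THP-1 cells that had been plated after 16-18 h PMA treatment, 50,000 per well in 2% FBS. One hour later the cells received gramicidin (5 μM, 2 h) and were centrifuged. HTRF detected IL-1β in the collected supernatants.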

For the compound `CCn1cc(F)c(S(N)(=O)=NC(=O)Nc2c(C)c(C(F)(F)F)nc3c2CC(C)C3)n1` (single isomer, unassigned) [Compound 1101b, (S, R) or (S, S)-N′-((3,6-dimethyl-2-(trifluoromethyl)-6,7-dihydro-5H-cyclopenta[b]pyridin-4-yl)carbamoyl)-1-ethyl-4-fluoro-1H-pyrazole-3-sulfonimidamide], the IC50 – broadly, the concentration needed to halve the response being measured – in experiment [1] (read-out: hTHP-1 IC50 in 10% FBS, hTHP-1 assay containing 10% fetal bovine serum, Table B5, listed as 822) was in the range of 1 to 5 µM; in experiment [2] (read-out: hTHP-1 IC50 in 2% FBS, hTHP-1 assay containing 2% fetal bovine serum, Table B5, listed as 822), 1 to 5 µM.
`CCn1cc(F)c(S(N)(=O)=NC(=O)Nc2c(C)c(C(F)(F)F)nc3c2C(C)CC3)n1` (single isomer, unassigned) [Compound 1100d, (S, S) or (S, R)-N′-((3,5-dimethyl-2-(trifluoromethyl)-6,7-dihydro-5H-cyclopenta[b]pyridin-4-yl)carbamoyl)-1-ethyl-4-fluoro-1H-pyrazole-3-sulfonimidamide]: the IC50 in experiment [1] (Homo sapiens, THP-1, read-out: hTHP-1 IC50 in 10% FBS, 10% fetal bovine serum, Table B5, value printed as a bound, not a class symbol) is more than 30 µM; in experiment [2] (Homo sapiens, THP-1, read-out: hTHP-1 IC50 in 2% FBS, 2% fetal bovine serum, Table B5, value printed as a bound, not a class symbol), more than 30 µM.
As for `CCn1cc(F)c(S(N)(=O)=NC(=O)Nc2c(C)c(C(F)(F)F)nc3c2CC(C)C3)n1` (single isomer, unassigned) [Compound 1101c, (S, S) or (S, R)-N′-((3,6-dimethyl-2-(trifluoromethyl)-6,7-dihydro-5H-cyclopenta[b]pyridin-4-yl)carbamoyl)-1-ethyl-4-fluoro-1H-pyrazole-3-sulfonimidamide], the IC50 in experiment [1] (read-out: hTHP-1 IC50 in 10% FBS, hTHP-1 assay containing 10% fetal bovine serum, Table B5, listed as 823) was in the range of 5 to 30 µM; in experiment [2] (read-out: hTHP-1 IC50 in 2% FBS, hTHP-1 assay containing 2% fetal bovine serum, Table B5, listed as 823) it was 5 to 30 µM.

These data come from patent US20230031406A1, “COMPOUNDS AND COMPOSITIONS FOR TREATING CONDITIONS ASSOCIATED WITH NLRP ACTIVITY” (Novartis AG, priority 2018, published 2023).
